In assay [1] the test system is human colon cancer cell line HCT-116. The experiment in a line: In vitro cell proliferation assay. Type of assay: cell-based. The note with it: HCT-116 cell number, 72 hours of treatment. The protocol: In Vitro Cell Proliferation Assay
The human colon cancer cell line HCT-116 was seeded at 600 cells/well in 96 well-plate (ThermoFisher) using RPMI medium containing 2 mM L-glutamine (Invitrogen) supplemented with 10% FCS (Invitrogen) and 1% penicillin/streptomycin (Sigma) and maintained at 37° C., 5% CO2 and 100% humidity. The following day, old medium was withdrawn and the fresh medium was added. Initial numbers of cells were counted before adding compounds. Then cells were treated in duplicates with compounds (a half-logarithmic serial dilution from 10 μM). Eight untreated control wells were incubated in each plate. After 72 hours of treatment, cells were fixed with 2% paraformaldehyde, and the nucleus were stained with Hoechst 33258 (Invitrogen). The numbers of cells were counted with ArrayScan™ VTI (ThermoFisher Scientific).

Assay [2] concerns the target human TNIK (N-terminal segment, TNIK_N, residues 1-314) (Homo sapiens (Human), UniProt Q9UKE5). Put plainly: TNIK kinase assay (mobility shift). Type of assay: biochemical. The note with it: TNIK_N kinase activity, 25 μM ATP, 1 h at room temperature. A digest of the protocol:
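GST-tagged human TNIK residues 1-314 (Sf21 baculovirus) at 0.08 ng/μl phosphorylated 1 μM FITC-peptide with 25 μM ATP. Buffer: 20 mM Hepes pH 7.5, 5 mM MgCl2, 2 mM DTT, 1% DMSO; 1 h at room temperature, stopped with EDTA. Mobility-shift detection; activity = P/(P+S).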

Structures are written as SMILES. A value given as a limit tells only on which side of the number the result lay.

Usually IC50 stands for the concentration at which inhibition is half-maximal.

Chain of human TNIK (N-terminal segment, TNIK_N, residues 1-314) (Q9UKE5 1-314): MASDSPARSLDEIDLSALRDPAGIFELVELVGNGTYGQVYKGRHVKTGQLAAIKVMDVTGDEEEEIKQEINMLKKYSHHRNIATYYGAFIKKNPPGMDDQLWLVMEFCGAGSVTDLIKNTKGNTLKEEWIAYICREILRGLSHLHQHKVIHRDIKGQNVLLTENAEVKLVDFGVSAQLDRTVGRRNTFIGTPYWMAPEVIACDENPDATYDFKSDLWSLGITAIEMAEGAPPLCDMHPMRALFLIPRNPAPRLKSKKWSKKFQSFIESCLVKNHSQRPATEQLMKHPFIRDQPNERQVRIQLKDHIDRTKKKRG

As to `CC(=O)Nc1ccc(C(=O)Nc2sc(Nc3ccc4ccccc4c3)nc2C(N)=O)cc1` [Example 2, 5-(4-acetamidobenzamido)-2-(naphthalen-2-ylamino)thiazole-4-carboxamide], the half-maximal inhibitory concentration (IC50) in assay [1] is less than 0.1 µM; in assay [2] it was 0.0198 µM.
On to `CN1CCN(c2ccc(C(=O)Nc3sc(N(C)c4ccc5ncccc5c4)nc3C(N)=O)cc2)CC1` [Example 28, 2-[methyl(quinolin-6-yl)amino]-5-[4-(4-methylpiperazin-1-yl]benzamido)thiazole-4-carboxamide], for which the figures for the IC50 in assay [1] and in assay [2] were 0.1 to 1 µM and 0.017 µM, respectively.
The corresponding values for `NC(=O)c1nc(Nc2ccc3ccccc3c2)sc1NC(=O)c1cc2sccc2[nH]1` [Example 35, N-[4-carbamoyl-2-(naphthalen-2-ylamino)thiazol-5-yl]-4H-thieno[3,2-b]pyrrole-5-carboxamide] are 0.1 to 1 µM and 0.0227 µM.
On to `NC(=O)c1nc(Nc2ccc3ccccc3c2)sc1NC(=O)c1ccc(N2CCC(O)CC2)cc1` [Example 97, 5-[4-(4-hydroxypiperidin-1-yl)benzamido]-2-(naphthalen-2-ylamino)thiazole-4-carboxamide], for which the IC50 in assay [1] is less than 0.1 µM; in assay [2], 0.0127 µM.
Taken in the same sequence, the figures for `NC(=O)c1nc(Nc2ccc3ccccc3c2)sc1NC(=O)c1ccc(CN2CCOCC2)cc1` [Example 18, 5-[4-(morpholinomethyl)benzamido]-2-(naphthalen-2-ylamino)thiazole-4-carboxamide] were less than 0.1 µM and 0.0086 µM.
In the case of `CC(C)=CC(=O)Nc1sc(Nc2ccc3ccccc3c2)nc1C(N)=O` [Example 83, 5-(3-methylbut-2-enamido)-2-(naphthalen-2-yl-amino)thiazole-4-carboxamide], the IC50 in assay [1] was 1 to 10 µM; in assay [2] it was 0.0127 µM.
Turning to `NC(=O)c1nc(Nc2ccc3ccccc3c2)sc1NC(=O)c1ccc(Cn2cncn2)cc1` [Example 195, 5-{4-[(1H-1,2,4-triazol-1-yl)methyl]benzamido}-2-(naphthalen-2-ylamino)thiazole-4-carboxamide], the IC50 in assay [1] is less than 0.1 µM; in assay [2] it was 0.0025 µM.
Turning to `NC(=O)c1nc(Nc2ccc3ccccc3c2)sc1NC(=O)c1ccc(Cn2cnnn2)cc1` [Example 205, 5-(4-[(1H-tetrazol-1-yl)methyl)benzamido]-2-(naphthalen-2-ylamino)thiazole-4-carboxamide], the concentration for half-maximal inhibition (IC50) in assay [1] was less than 0.1 µM; in assay [2], 0.0059 µM.
`CN1CCN(c2ccc(C(=O)Nc3sc(N(C)c4ccc5ccccc5c4)nc3C(N)=O)cc2)CC1` [Example 65, 2-[methyl(naphthalen-2-yl)amino]-5-[4-(4-methyl-piperazin-1-yl)benzamido]thiazole-4-carboxamide]: the IC50 in assay [1] is 1 to 10 µM; in assay [2] it was 0.0363 µM.
Taken in the same sequence, the figures for `NC(=O)c1nc(Nc2ccc3ccccc3c2)sc1NC(=O)c1ccc(NCCN2CCCCC2)cc1` [Example 13, 2-(naphthalen-2-ylamino)-5-{4-[2-(piperidin-1-yl)ethylamino]benzamido}thiazole-4-carboxamide] were less than 0.1 µM and 0.008 µM.
The corresponding values for `CN1CCN(c2ccc(C(=O)Nc3sc(Nc4ccc5ncccc5c4)nc3C(N)=O)cc2)CC1` [Example 24, 5-[4-(4-methylpiperazin-1-yl)benzamido]-2-(quinolin-6-ylamino)thiazole-4-carboxamide] are 1 to 10 µM and 0.0041 µM.
Taken in the same sequence, the figures for `NC(=O)c1nc(Nc2ccc3cnccc3c2)sc1NC(=O)c1ccsc1` [Example 46, 2-(isoquinolin-6-ylamino)-5-(thiophene-3-carbox-amido)thiazole-4-carboxamide] were 0.1 to 1 µM and 0.012 µM.
Turning to `CN1CCN(Cc2ccc(C(=O)Nc3sc(Nc4ccc5ccccc5c4)nc3C(N)=O)cc2)CC1` [Example 17, 5-{4-[(4-methylpiperazin-1-yl)methyl]benzamido}-2-(naphthalen-2-ylamino)thiazole-4-carboxamide], the concentration for half-maximal inhibition (IC50) is less than 0.1 µM in assay [1] and 0.0051 µM in assay [2].
The corresponding values for `CN1CCN(c2ccc(C(=O)Nc3sc(Nc4cccc5ncccc45)nc3C(N)=O)cc2)CC1` [Example 26, 5-[4-(4-methylpiperazin-1-yl)benzamido]-2-(quinolin-5-ylamino)thiazole-4-carboxamide] are 1 to 10 µM and 0.0156 µM.

The values above are taken from US9102637B2, “Bicyclic thiazole compounds” (CARNA BIOSCIENCES INC., priority 2013, dated 2015).
